From ChEMBL document CHEMBL1201862, “PubChem BioAssay data set” (2004)
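Compound exposure: 48 hours, 5 concentrations, 96-well plates. GI50 = concentration required for 50% inhibition of growth.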 Activity calls are given as the source filed them. No stated cut-off is given here; in the data, active = GI50 up to about 1.1 µM and inactive = higher.

Experiments:
Experiment in all cases: NCI-60 cell line screen, 48 h
EKVX = test system: EKVX
PC-3 = test system: PC-3
HOP-92 = test system: HOP-92
SK-OV-3 = test system: SK-OV-3
SNB-19 = test system: SNB-19
OVCAR-8 = test system: OVCAR-8
HCC 2998 = test system: HCC 2998
TK-10 = test system: TK-10
COLO 205 = test system: COLO 205
A549 = test system: A549
SF-295 = test system: SF-295
IGROV-1 = test system: IGROV-1
786-0 = test system: 786-0
K562 = test system: K562
UACC-62 = test system: UACC-62
SF-539 = test system: SF-539
SK-MEL-5 = test system: SK-MEL-5
RPMI-8226 = test system: RPMI-8226
MCF7 = test system: MCF7
MDA-MB-435 = test system: MDA-MB-435
SR = test system: SR
NCI-H460 = test system: NCI-H460
LOX IMVI = test system: LOX IMVI
HCT-116 = test system: HCT-116
SW-620 = test system: SW-620
MOLT-4 = test system: MOLT-4
MDA-N = test system: MDA-N
SNB-75 = test system: SNB-75
UACC-257 = test system: UACC-257
UO-31 = test system: UO-31
MDA-MB-231 = test system: MDA-MB-231
CCRF-CEM = test system: CCRF-CEM
RXF 393 = test system: RXF 393
NCI/ADR-RES = test system: NCI/ADR-RES
M14 = test system: M14
T47D = test system: T47D
DU-145 = test system: DU-145
KM12 = test system: KM12
HL-60 = test system: HL-60
HOP-62 = test system: HOP-62
SN12C = test system: SN12C
Malme-3M = test system: Malme-3M
SF-268 = test system: SF-268
CAKI-1 = test system: CAKI-1
NCI-H226 = test system: NCI-H226
NCI-H522 = test system: NCI-H522
OVCAR-5 = test system: OVCAR-5
SK-MEL-28 = test system: SK-MEL-28
ACHN = test system: ACHN
Hs-578T = test system: Hs-578T
NCI-H23 = test system: NCI-H23
OVCAR-3 = test system: OVCAR-3
OVCAR-4 = test system: OVCAR-4
HT-29 = test system: HT-29
HCT-15 = test system: HCT-15
SK-MEL-2 = test system: SK-MEL-2
U-251 = test system: U-251

## CCOC(=O)C(C)(C(=O)OCC)/C(Cl)=C\Cl
EKVX
  GI50: > 100 µM (inactive)
PC-3
  GI50: > 100 µM (inactive)
HOP-92
  GI50: > 100 µM (inactive)
SK-OV-3
  GI50: > 100 µM (inactive)
SNB-19
  GI50: > 100 µM (inactive)
OVCAR-8
  GI50: > 100 µM (inactive)
HCC 2998
  GI50: 0.0434 µM (active)
TK-10
  GI50: > 100 µM (inactive)
COLO 205
  GI50: > 100 µM (inactive)
A549
  GI50: 33.7 µM (inactive)
SF-295
  GI50: > 100 µM (inactive)
IGROV-1
  GI50: > 100 µM (inactive)
786-0
  GI50: > 100 µM (inactive)
K562
  GI50: > 100 µM (inactive)
UACC-62
  GI50: > 100 µM (inactive)
SF-539
  GI50: > 100 µM (inactive)
SK-MEL-5
  GI50: > 100 µM (inactive)
RPMI-8226
  GI50: > 100 µM (inactive)
MCF7
  GI50: 84.7 µM (inactive)
MDA-MB-435
  GI50: > 100 µM (inactive)
SR
  GI50: > 100 µM (inactive)
NCI-H460
  GI50: 22.6 µM (inactive)
LOX IMVI
  GI50: > 100 µM (inactive)
HCT-116
  GI50: > 100 µM (inactive)
SW-620
  GI50: > 100 µM (inactive)
MOLT-4
  GI50: > 100 µM (inactive)
MDA-N
  GI50: > 100 µM (inactive)
SNB-75
  GI50: 66.1 µM (inactive)
UACC-257
  GI50: > 100 µM (inactive)
UO-31
  GI50: > 100 µM (inactive)
MDA-MB-231
  GI50: > 100 µM (inactive)
CCRF-CEM
  GI50: > 100 µM (inactive)
RXF 393
  GI50: > 100 µM (inactive)
NCI/ADR-RES
  GI50: > 100 µM (inactive)
M14
  GI50: > 100 µM (inactive)
T47D
  GI50: > 100 µM (inactive)
DU-145
  GI50: > 100 µM (inactive)
KM12
  GI50: > 100 µM (inactive)
HL-60
  GI50: > 100 µM (inactive)
HOP-62
  GI50: > 100 µM (inactive)
SN12C
  GI50: > 100 µM (inactive)
Malme-3M
  GI50: > 100 µM (inactive)
SF-268
  GI50: > 100 µM (inactive)
CAKI-1
  GI50: > 100 µM (inactive)
NCI-H226
  GI50: > 100 µM (inactive)
NCI-H522
  GI50: > 100 µM (inactive)
OVCAR-5
  GI50: > 100 µM (inactive)
SK-MEL-28
  GI50: > 100 µM (inactive)
ACHN
  GI50: > 100 µM (inactive)
Hs-578T
  GI50: > 100 µM (inactive)
NCI-H23
  GI50: > 100 µM (inactive)
OVCAR-3
  GI50: > 100 µM (inactive)
OVCAR-4
  GI50: > 100 µM (inactive)
HT-29
  GI50: > 100 µM (inactive)

## CC1(C)N=C(/C(Cl)=[N+](/[O-])C(=O)c2ccc(Cl)cc2)C(C)(C)N1O
EKVX
  GI50: > 100 µM (inactive)
PC-3
  GI50: 21.3 µM (inactive)
HOP-92
  GI50: 17.3 µM (inactive)
SK-OV-3
  GI50: > 100 µM (inactive)
SNB-19
  GI50: > 100 µM (inactive)
OVCAR-8
  GI50: 20.4 µM (inactive)
HCC 2998
  GI50: 25.9 µM (inactive)
TK-10
  GI50: 19.8 µM (inactive)
COLO 205
  GI50: 17 µM (inactive)
A549
  GI50: > 100 µM (inactive)
HCT-15
  GI50: 19.8 µM
SF-295
  GI50: 56 µM (inactive)
IGROV-1
  GI50: 41 µM (inactive)
K562
  GI50: 5.51 µM (inactive)
UACC-62
  GI50: > 10 µM (inactive)
SF-539
  GI50: 21.3 µM (inactive)
SK-MEL-5
  GI50: 20 µM (inactive)
RPMI-8226
  GI50: 26.5 µM (inactive)
MCF7
  GI50: 17.3 µM (inactive)
MDA-MB-435
  GI50: 22.3 µM (inactive)
SR
  GI50: 28.3 µM (inactive)
NCI-H460
  GI50: 45.5 µM (inactive)
LOX IMVI
  GI50: 6.76 µM (inactive)
SK-MEL-2
  GI50: 52.7 µM (inactive)
HCT-116
  GI50: 16.3 µM (inactive)
SW-620
  GI50: 20.3 µM (inactive)
MOLT-4
  GI50: > 10 µM (inactive)
MDA-N
  GI50: 17.1 µM (inactive)
UACC-257
  GI50: 18.2 µM (inactive)
UO-31
  GI50: > 100 µM (inactive)
MDA-MB-231
  GI50: 21.8 µM (inactive)
CCRF-CEM
  GI50: 7.52 µM (inactive)
RXF 393
  GI50: 22 µM (inactive)
NCI/ADR-RES
  GI50: 25.9 µM (inactive)
M14
  GI50: 18.2 µM (inactive)
T47D
  GI50: 38.3 µM (inactive)
DU-145
  GI50: > 100 µM (inactive)
U-251
  GI50: 26.4 µM (inactive)
KM12
  GI50: 45.3 µM (inactive)
HL-60
  GI50: 18.5 µM (inactive)
HOP-62
  GI50: 39 µM (inactive)
SN12C
  GI50: 23.8 µM (inactive)
Malme-3M
  GI50: 17.7 µM (inactive)
SF-268
  GI50: 29.4 µM (inactive)
CAKI-1
  GI50: 19.2 µM (inactive)
NCI-H226
  GI50: 25.9 µM (inactive)
OVCAR-5
  GI50: 23.6 µM (inactive)
SK-MEL-28
  GI50: 18.5 µM (inactive)
ACHN
  GI50: 38.5 µM (inactive)
Hs-578T
  GI50: 36.2 µM (inactive)
NCI-H23
  GI50: 22.1 µM (inactive)
OVCAR-3
  GI50: 17.5 µM (inactive)
OVCAR-4
  GI50: 26.4 µM (inactive)
HT-29
  GI50: 22.1 µM (inactive)
